From US6841519B1, “Isoxazoline derivatives and herbicides containing the same as the active ingredient” (Kumiai Chemical Industry Co., Ltd., priority 1999, dated 2005)

How the values were obtained:
Format in all cases: in vivo
[1] = system: Echinochloa crus-galli (L.) Beauv. var. crusgalli (Ec); experiment: Test for herbicidal effect by upland foliage treatment (Test Example 3); conditions: 100 g/10 a active ingredient, examined at 14th day
Outline: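 Scored 14 days post-spray against a graded standard: greenhouse-grown Ec, 2 weeks old in upland soil, received whole-foliage application of diluted wettable powder (100 g active ingredient per 10 ares, spray volume 100 L per 10 ares).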

[2] = system: Setaria viridis (L.) Beauv. (Se); experiment: Test for herbicidal effect by upland field soil treatment (Test Example 2), Se
Outline: (§1)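 Pre-emergence soil treatment: wettable powder diluted in water and sprayed on soil just sown with Ec and Se seeds, delivering 100 g active ingredient per 10 ares in 100 liters per 10 ares. Herbicidal effect was rated against a fixed scale 21 days later, after greenhouse growth.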

[3] = system: Echinochloa crus-galli (L.) Beauv. var. crusgall (Ec); experiment: Test for herbicidal effect by upland field soil treatment (Test Example 2), Ec
Outline: as §1

[4] = system: Echinochloa oryzicola Vasing. (Eo); experiment: Test for herbicidal effect by paddy field soil treatment (Test Example 1); conditions: application amount (active ingredient) 100 g/10 a, examined at the 21st day from the treatment, index per Table 40
Outline: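 Scored on a standard scale at day 21 in the greenhouse: herbicidal effect of wettable powder applied to flooded water (3 cm depth) at 100 g a.i./10 ares, one day after sowing Eo into puddled paddy soil.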

[5] = 100 g/10 a active ingredient, examined at 21st day
[6] = application amount (active ingredient) 100 g/10 a, examined at the 21st day from the treatment, index per Table 40

For `CC(C)OC(=O)c1ccccc1CS(=O)(=O)C1=NOC(C)(C)C1` [Compound 1-595], the “Herbicidal effect to Ec” value [1] was 4 (A herbicidal effect or phytotoxicity of 70% to less than 90%), the “Herbicidal effect to Se” value [2, 5] was 5 (A herbicidal effect or phytotoxicity of 90% or more) and the “Herbicidal effect to Ec” value [3, 5] was 5 (A herbicidal effect or phytotoxicity of 90% or more). The “Herbicidal effect to Eo” value [4] was 5 (A herbicidal effect or phytotoxicity of 90% or more).

`CCOCc1ccccc1CS(=O)(=O)C1=NOC(C)(C)C1` [Compound 1-586] was tested, and the “Herbicidal effect to Ec” value [1] was 5 (A herbicidal effect or phytotoxicity of 90% or more), the “Herbicidal effect to Se” value [2, 5] was 5 (A herbicidal effect or phytotoxicity of 90% or more) and the “Herbicidal effect to Ec” value [3, 5] was 5 (A herbicidal effect or phytotoxicity of 90% or more). The “Herbicidal effect to Eo” value [4] was 5 (A herbicidal effect or phytotoxicity of 90% or more).

In the case of `O=S(=O)(Cc1c(F)cccc1F)C1=NOC2(CC2)C1` [Compound 1-380], the “Herbicidal effect to Ec” value [1] is reported as 4 (A herbicidal effect or phytotoxicity of 70% to less than 90%), the “Herbicidal effect to Se” value [2, 6] is reported as 4 (A herbicidal effect or phytotoxicity of 70% to less than 90%) and the “Herbicidal effect to Ec” value [3, 6] is reported as 5 (A herbicidal effect or phytotoxicity of 90% or more). For the same compound, the “Herbicidal effect to Eo” value [4] was 5 (A herbicidal effect or phytotoxicity of 90% or more).

For `CCC1(C)CC(S(=O)(=O)Cc2ccccc2C)=NO1` (centres unmarked) [Compound 1-201], the “Herbicidal effect to Ec” value [1] was 5 (A herbicidal effect or phytotoxicity of 90% or more), the “Herbicidal effect to Se” value [2, 6] was 5 (A herbicidal effect or phytotoxicity of 90% or more) and the “Herbicidal effect to Ec” value [3, 6] was 5 (A herbicidal effect or phytotoxicity of 90% or more). For the same compound, the “Herbicidal effect to Eo” value [4] was 5 (A herbicidal effect or phytotoxicity of 90% or more).

For `CC1(C)CC(S(=O)(=O)Cc2cc(F)cc(F)c2)=NO1` [Compound 1-506], the “Herbicidal effect to Ec” value [1] was 4 (A herbicidal effect or phytotoxicity of 70% to less than 90%), the “Herbicidal effect to Se” value [2, 5] was 5 (A herbicidal effect or phytotoxicity of 90% or more) and the “Herbicidal effect to Ec” value [3, 5] was 5 (A herbicidal effect or phytotoxicity of 90% or more). The “Herbicidal effect to Eo” value [4] was 5 (A herbicidal effect or phytotoxicity of 90% or more).

In the case of `CCCOc1cccc(C)c1CS(=O)(=O)C1=NOC(C)(C)C1` [Compound 1-603], the “Herbicidal effect to Ec” value [1] is reported as 4 (A herbicidal effect or phytotoxicity of 70% to less than 90%), the “Herbicidal effect to Se” value [2, 5] is reported as 5 (A herbicidal effect or phytotoxicity of 90% or more) and the “Herbicidal effect to Ec” value [3, 5] is reported as 5 (A herbicidal effect or phytotoxicity of 90% or more). For the same compound, the “Herbicidal effect to Eo” value [4] was 5 (A herbicidal effect or phytotoxicity of 90% or more).

For `C#CCOc1cccc(Cl)c1CS(=O)(=O)C1=NOC(C)(C)C1` [Compound 1-591], the “Herbicidal effect to Ec” value [1] was 4 (A herbicidal effect or phytotoxicity of 70% to less than 90%), the “Herbicidal effect to Se” value [2, 5] was 5 (A herbicidal effect or phytotoxicity of 90% or more) and the “Herbicidal effect to Ec” value [3, 5] was 5 (A herbicidal effect or phytotoxicity of 90% or more). The “Herbicidal effect to Eo” value [4] was 5 (A herbicidal effect or phytotoxicity of 90% or more).

For `O=S(=O)(Cc1c(F)cccc1F)C1=NOC2(CCCC2)C1` [Compound 1-383], the “Herbicidal effect to Ec” value [1] was 4 (A herbicidal effect or phytotoxicity of 70% to less than 90%), the “Herbicidal effect to Se” value [2, 6] was 4 (A herbicidal effect or phytotoxicity of 70% to less than 90%) and the “Herbicidal effect to Ec” value [3, 6] was 5 (A herbicidal effect or phytotoxicity of 90% or more). For the same compound, the “Herbicidal effect to Eo” value [4] was 5 (A herbicidal effect or phytotoxicity of 90% or more).

`COc1ccc([N+](=O)[O-])cc1CS(=O)(=O)C1=NOC(C)(C)C1` [Compound 1-530] was tested, and the “Herbicidal effect to Ec” value [1] was 5 (A herbicidal effect or phytotoxicity of 90% or more), the “Herbicidal effect to Se” value [2, 5] was 5 (A herbicidal effect or phytotoxicity of 90% or more) and the “Herbicidal effect to Ec” value [3, 5] was 5 (A herbicidal effect or phytotoxicity of 90% or more). The “Herbicidal effect to Eo” value [4] was 5 (A herbicidal effect or phytotoxicity of 90% or more).

In the case of `Cc1c(CS(=O)(=O)C2=NOC(C)(C)C2)cccc1[N+](=O)[O-]` [Compound 1-537], the “Herbicidal effect to Ec” value [1] is reported as 4 (A herbicidal effect or phytotoxicity of 70% to less than 90%), the “Herbicidal effect to Se” value [2, 5] is reported as 5 (A herbicidal effect or phytotoxicity of 90% or more) and the “Herbicidal effect to Ec” value [3, 5] is reported as 5 (A herbicidal effect or phytotoxicity of 90% or more). For the same compound, the “Herbicidal effect to Eo” value [4] was 5 (A herbicidal effect or phytotoxicity of 90% or more).

With `CC1(C)CC(S(=O)(=O)Cc2cccc(OC(F)F)c2)=NO1` [Compound 1-56] the “Herbicidal effect to Ec” value [1] was 5 (A herbicidal effect or phytotoxicity of 90% or more), the “Herbicidal effect to Se” value [2, 6] was 5 (A herbicidal effect or phytotoxicity of 90% or more) and the “Herbicidal effect to Ec” value [3, 6] was 5 (A herbicidal effect or phytotoxicity of 90% or more). For the same compound, the “Herbicidal effect to Eo” value [4] was 5 (A herbicidal effect or phytotoxicity of 90% or more).

In the case of `CC1(C)CC(S(=O)(=O)Cc2cccc(Cl)c2F)=NO1` [Compound 1-184], the “Herbicidal effect to Ec” value [1] is reported as 4 (A herbicidal effect or phytotoxicity of 70% to less than 90%), the “Herbicidal effect to Se” value [2, 6] is reported as 4 (A herbicidal effect or phytotoxicity of 70% to less than 90%) and the “Herbicidal effect to Ec” value [3, 6] is reported as 5 (A herbicidal effect or phytotoxicity of 90% or more). The “Herbicidal effect to Eo” value [4] was 5 (A herbicidal effect or phytotoxicity of 90% or more).

With `CC1(C)CC(S(=O)(=O)Cc2ccccc2OC2CCCC2)=NO1` [Compound 1-609] the “Herbicidal effect to Ec” value [1] was 5 (A herbicidal effect or phytotoxicity of 90% or more), the “Herbicidal effect to Se” value [2, 5] was 5 (A herbicidal effect or phytotoxicity of 90% or more) and the “Herbicidal effect to Ec” value [3, 5] was 5 (A herbicidal effect or phytotoxicity of 90% or more). For the same compound, the “Herbicidal effect to Eo” value [4] was 5 (A herbicidal effect or phytotoxicity of 90% or more).

`CC1(C)CC(S(=O)(=O)Cc2cc(F)cc(C(F)(F)F)c2)=NO1` [Compound 1-542] was tested, and the “Herbicidal effect to Ec” value [1] was 4 (A herbicidal effect or phytotoxicity of 70% to less than 90%), the “Herbicidal effect to Se” value [2, 5] was 5 (A herbicidal effect or phytotoxicity of 90% or more) and the “Herbicidal effect to Ec” value [3, 5] was 5 (A herbicidal effect or phytotoxicity of 90% or more). For the same compound, the “Herbicidal effect to Eo” value [4] was 5 (A herbicidal effect or phytotoxicity of 90% or more).

In the case of `CCOc1ccccc1CS(=O)(=O)C1=NOC(C)(C)C1` [Compound 1-43], the “Herbicidal effect to Ec” value [1] is reported as 5 (A herbicidal effect or phytotoxicity of 90% or more), the “Herbicidal effect to Se” value [2, 6] is reported as 5 (A herbicidal effect or phytotoxicity of 90% or more) and the “Herbicidal effect to Ec” value [3, 6] is reported as 5 (A herbicidal effect or phytotoxicity of 90% or more). The “Herbicidal effect to Eo” value [4] was 5 (A herbicidal effect or phytotoxicity of 90% or more).

With `CC1(C)CC(S(=O)(=O)Cc2ccc(C(F)(F)F)cc2F)=NO1` [Compound 1-528] the “Herbicidal effect to Ec” value [1] was 5 (A herbicidal effect or phytotoxicity of 90% or more), the “Herbicidal effect to Se” value [2, 5] was 5 (A herbicidal effect or phytotoxicity of 90% or more) and the “Herbicidal effect to Ec” value [3, 5] was 5 (A herbicidal effect or phytotoxicity of 90% or more). For the same compound, the “Herbicidal effect to Eo” value [4] was 5 (A herbicidal effect or phytotoxicity of 90% or more).

With `Cc1cccc(OC(C)C)c1CS(=O)(=O)C1=NOC(C)(C)C1` [Compound 1-604] the “Herbicidal effect to Ec” value [1] was 5 (A herbicidal effect or phytotoxicity of 90% or more), the “Herbicidal effect to Se” value [2, 5] was 5 (A herbicidal effect or phytotoxicity of 90% or more) and the “Herbicidal effect to Ec” value [3, 5] was 5 (A herbicidal effect or phytotoxicity of 90% or more). The “Herbicidal effect to Eo” value [4] was 5 (A herbicidal effect or phytotoxicity of 90% or more).

In the case of `CCC1(C)CC(S(=O)(=O)Cc2ccccc2)=NO1` (centres unmarked) [Compound 1-188], the “Herbicidal effect to Ec” value [1] is reported as 4 (A herbicidal effect or phytotoxicity of 70% to less than 90%), the “Herbicidal effect to Se” value [2, 6] is reported as 5 (A herbicidal effect or phytotoxicity of 90% or more) and the “Herbicidal effect to Ec” value [3, 6] is reported as 5 (A herbicidal effect or phytotoxicity of 90% or more). For the same compound, the “Herbicidal effect to Eo” value [4] was 5 (A herbicidal effect or phytotoxicity of 90% or more).

For `CC1(C)CC(S(=O)(=O)Cc2ccccc2Br)=NO1` [Compound 1-35], the “Herbicidal effect to Ec” value [1] was 4 (A herbicidal effect or phytotoxicity of 70% to less than 90%), the “Herbicidal effect to Se” value [2, 6] was 5 (A herbicidal effect or phytotoxicity of 90% or more) and the “Herbicidal effect to Ec” value [3, 6] was 5 (A herbicidal effect or phytotoxicity of 90% or more). For the same compound, the “Herbicidal effect to Eo” value [4] was 5 (A herbicidal effect or phytotoxicity of 90% or more).

With `CCc1cccc(CC)c1CS(=O)(=O)C1=NOC(C)(C)C1` [Compound 1-502] the “Herbicidal effect to Ec” value [1] was 5 (A herbicidal effect or phytotoxicity of 90% or more), the “Herbicidal effect to Se” value [2, 5] was 5 (A herbicidal effect or phytotoxicity of 90% or more) and the “Herbicidal effect to Ec” value [3, 5] was 5 (A herbicidal effect or phytotoxicity of 90% or more). For the same compound, the “Herbicidal effect to Eo” value [4] was 5 (A herbicidal effect or phytotoxicity of 90% or more).

For `CC1(C)CC(S(=O)(=O)Cc2cccc(F)c2F)=NO1` [Compound 1-504], the “Herbicidal effect to Ec” value [1] was 5 (A herbicidal effect or phytotoxicity of 90% or more), the “Herbicidal effect to Se” value [2, 5] was 5 (A herbicidal effect or phytotoxicity of 90% or more) and the “Herbicidal effect to Ec” value [3, 5] was 5 (A herbicidal effect or phytotoxicity of 90% or more). The “Herbicidal effect to Eo” value [4] was 5 (A herbicidal effect or phytotoxicity of 90% or more).

`Cc1ccc(C)c(CS(=O)(=O)C2=NOC(C)(C)C2)c1` [Compound 1-512] was tested, and the “Herbicidal effect to Ec” value [1] was 5 (A herbicidal effect or phytotoxicity of 90% or more), the “Herbicidal effect to Se” value [2, 5] was 5 (A herbicidal effect or phytotoxicity of 90% or more) and the “Herbicidal effect to Ec” value [3, 5] was 5 (A herbicidal effect or phytotoxicity of 90% or more). The “Herbicidal effect to Eo” value [4] was 5 (A herbicidal effect or phytotoxicity of 90% or more).

In the case of `CC1(C)CC(S(=O)(=O)Cc2ccccc2)=NO1` [Compound 1-1], the “Herbicidal effect to Ec” value [1] is reported as 5 (A herbicidal effect or phytotoxicity of 90% or more), the “Herbicidal effect to Se” value [2, 6] is reported as 5 (A herbicidal effect or phytotoxicity of 90% or more) and the “Herbicidal effect to Ec” value [3, 6] is reported as 5 (A herbicidal effect or phytotoxicity of 90% or more). For the same compound, the “Herbicidal effect to Eo” value [4] was 5 (A herbicidal effect or phytotoxicity of 90% or more).
